Assay results reported in patent US7122193B1 (priority 1994, dated 2006).

Experiments:
Assay type in all cases: cell-based, mouse
[1] = system: peptide-primed T lymphocytes from BALB/c mice
[2] = system: TCR of peptide-primed lymph node T-cells
[3] = system: peptide-primed T lymphocytes from BALB/c mice; remark: listed apart in the source

CH3CO-(D)Thr-(D)Asp-(D)Lys-(D)Tyr-(D)Thr-(D)Ile-(D)Lys-(D)Trp-(D)Val-(D)Ala-(D)Phe-(D)Leu-(D)Lys-NH2
proliferation of T-lymphocytes of mice immunized with retro-inverso analogue 103–115, in response to the peptide [1]: proliferated in response to the homologous peptide | proliferation of lymph node cells of mice immunized with parent peptide 103–115, stimulated in vitro by the peptide [1]: did not proliferate in vitro | IL-2 secretion by T-cells from mice immunized against the L-peptide 103–115 in the presence of the peptide [2]: remains unchanged | IL-2 production of lymph node cells of mice immunized with parent peptide 103–115, stimulated in vitro by the peptide [3]: No IL-2 production was observed | maximal IL-2 secretion measured using CTL-L cells in the presence of Con A [3]: 5 570 cpm
